Data reported in PubChem BioAssay AID2060884 (Molecular Pharmacology Branch, DTP, NCI, 2025).

Test system: NCI-H929 complex spheroids, viability % test/control
Assay: Anticancer human tumor NCI-H929 cell line growth inhibition [RAS];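 also: compound exposure lasted seven days before viability was read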;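 as to viability, T/C: 100% = DMSO vehicle control viability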
Settings: for IC50: curve of first compound; for viability, T/C: stronger effect = lower value
In short: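 Agents were tested in combination matrices in half-log decrements from a top concentration at or near clinical Cmax (10 microM if undetermined). Targets were multi-cell spheroids of tumour lines plus HUVEC and MSC stromal cells.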

[1] = second compound 0.000949 µM, first compound 0.0316 µM
[2] = second compound 0.000949 µM, first compound 0.1 µM
[3] = second compound 0.000949 µM, first compound 0.316 µM
[4] = second compound 0.000949 µM, first compound 1 µM
[5] = second compound 0.003 µM, first compound 0.0316 µM
[6] = second compound 0.003 µM, first compound 0.1 µM
[7] = second compound 0.003 µM, first compound 0.316 µM
[8] = second compound 0.003 µM, first compound 1 µM
[9] = second compound 0.00949 µM, first compound 0.0316 µM
[10] = second compound 0.00949 µM, first compound 0.1 µM
[11] = second compound 0.00949 µM, first compound 0.316 µM
[12] = second compound 0.00949 µM, first compound 1 µM
[13] = second compound 0.03 µM, first compound 0.0316 µM
[14] = second compound 0.03 µM, first compound 0.1 µM
[15] = second compound 0.03 µM, first compound 0.316 µM
[16] = second compound 0.03 µM, first compound 1 µM
[17] = second compound 0.0949 µM, first compound 0.0316 µM
[18] = second compound 0.0949 µM, first compound 0.1 µM
[19] = second compound 0.0949 µM, first compound 0.316 µM
[20] = second compound 0.0949 µM, first compound 1 µM
[21] = second compound 0.3 µM, first compound 0.0316 µM
[22] = second compound 0.3 µM, first compound 0.1 µM
[23] = second compound 0.3 µM, first compound 0.316 µM
[24] = second compound 0.3 µM, first compound 1 µM

O=C(c1ccc(F)c(F)c1Nc1ccc(I)cc1F)N1CC(O)([C@@H]2CCCCN2)C1 + CCn1c(-c2cccnc2C(C)OC)c2c3cc(ccc31)N1CCOC(CC(NC(=O)C(C(C)C)N(C)C(=O)C3(F)CCN(C(=O)C#CC(C)(C)N(C)C)CC3)C(=O)N3CCCC(N3)C(=O)OCC(C)(C)C2)C1
IC50 (second compound 0.000949 µM): 0.663 µM | IC50 (second compound 0.003 µM): 0.688 µM | IC50 (second compound 0.00949 µM): 0.686 µM | IC50 (second compound 0.03 µM): 0.661 µM | IC50 (second compound 0.0949 µM): 0.636 µM | IC50 (second compound 0.3 µM): 0.597 µM | viability, T/C (second compound 0.000949 µM, first compound 0.00316 µM): 109% | viability, T/C (second compound 0.000949 µM, first compound 0.01 µM): 97.9% | viability, T/C [1]: 103% | viability, T/C [2]: 92.5% | viability, T/C [3]: 98.3% | viability, T/C [4]: 23.2% | viability, T/C (second compound 0.003 µM, first compound 0.00316 µM): 99.2% | viability, T/C (second compound 0.003 µM, first compound 0.01 µM): 102% | viability, T/C [5]: 101% | viability, T/C [6]: 93.7% | viability, T/C [7]: 98.4% | viability, T/C [8]: 26.8% | viability, T/C (second compound 0.00949 µM, first compound 0.00316 µM): 97.2% | viability, T/C (second compound 0.00949 µM, first compound 0.01 µM): 102% | viability, T/C [9]: 104% | viability, T/C [10]: 95.1% | viability, T/C [11]: 101% | viability, T/C [12]: 25.5% | viability, T/C (second compound 0.03 µM, first compound 0.00316 µM): 98.6% | viability, T/C (second compound 0.03 µM, first compound 0.01 µM): 100% | viability, T/C [13]: 102% | viability, T/C [14]: 96.9% | viability, T/C [15]: 101% | viability, T/C [16]: 21.8% | viability, T/C (second compound 0.0949 µM, first compound 0.00316 µM): 96.6% | viability, T/C (second compound 0.0949 µM, first compound 0.01 µM): 99.7% | viability, T/C [17]: 101% | viability, T/C [18]: 98.4% | viability, T/C [19]: 103% | viability, T/C [20]: 17.7% | viability, T/C (second compound 0.3 µM, first compound 0.00316 µM): 100% | viability, T/C (second compound 0.3 µM, first compound 0.01 µM): 101% | viability, T/C [21]: 101% | viability, T/C [22]: 100% | viability, T/C [23]: 105% | viability, T/C [24]: 8.18%

CC(C)NCC(C(=O)N1CCN(c2ncnc3c2C(C)CC3O)CC1)c1ccc(Cl)cc1 (centres undefined) + CCn1c(-c2cc(N3CCN(C)CC3)cnc2C(C)OC)c2c3cc(ccc31)-c1csc(n1)CC(NC(=O)C1CC1C)C(=O)N1CCCC(N1)C(=O)OCC(C)(C)C2
IC50 (second compound 0.000949 µM): 1.72 µM | IC50 (second compound 0.003 µM): 1.69 µM | IC50 (second compound 0.00949 µM): 0.652 µM | IC50 (second compound 0.03 µM): < 0.0316 µM | IC50 (second compound 0.0949 µM): < 0.0316 µM | IC50 (second compound 0.3 µM): < 0.0316 µM | viability, T/C [1]: 102% | viability, T/C [2]: 97.5% | viability, T/C [3]: 105% | viability, T/C [4]: 80.3% | viability, T/C (second compound 0.000949 µM, first compound 3.16 µM): 16% | viability, T/C (second compound 0.000949 µM, first compound 10 µM): 2.39% | viability, T/C [5]: 97.7% | viability, T/C [6]: 102% | viability, T/C [7]: 106% | viability, T/C [8]: 82.3% | viability, T/C (second compound 0.003 µM, first compound 3.16 µM): 11.1% | viability, T/C (second compound 0.003 µM, first compound 10 µM): 1.27% | viability, T/C [9]: 109% | viability, T/C [10]: 115% | viability, T/C [11]: 109% | viability, T/C [12]: 15.4% | viability, T/C (second compound 0.00949 µM, first compound 3.16 µM): 1.11% | viability, T/C (second compound 0.00949 µM, first compound 10 µM): 0.51% | viability, T/C [13]: 42.5% | viability, T/C [14]: 23.2% | viability, T/C [15]: 5.92% | viability, T/C [16]: 1.07% | viability, T/C (second compound 0.03 µM, first compound 3.16 µM): 0.47% | viability, T/C (second compound 0.03 µM, first compound 10 µM): 0.39% | viability, T/C [17]: 5.19% | viability, T/C [18]: 2.73% | viability, T/C [19]: 0.72% | viability, T/C [20]: 0.7% | viability, T/C (second compound 0.0949 µM, first compound 3.16 µM): 0.37% | viability, T/C (second compound 0.0949 µM, first compound 10 µM): 0.17% | viability, T/C [21]: 2.88% | viability, T/C [22]: 1.14% | viability, T/C [23]: 0.58% | viability, T/C [24]: 0.57% | viability, T/C (second compound 0.3 µM, first compound 3.16 µM): 0.75% | viability, T/C (second compound 0.3 µM, first compound 10 µM): 0.24%
